Measured values: patent US12077503B2, “Substituted cyclic amides and their use as herbicides” (FMC CORPORATION, priority 2015, dated 2024)
Where two headings read alike, the source gives them in different places.

Key:
Format in all cases: in vivo
[1] = tested on: barnyardgrass (Echinochloa crus-galli); test: Test A preemergence; settings: Echinochloa crus-galli, pre-emergence, 240 h; for pest or weed control at 125 g/ha: 125 g ai/ha, 0 to 100 scale where 0 is no effect and 100 is complete control; for pest or weed control at 500 g/ha: 500 g ai/ha
How it was run: (§1)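 Compounds were formulated in a non-phytotoxic solvent mixture with surfactant and applied as a preemergence directed soil spray after seeding, or sprayed postemergence over plants 2 to 10 cm tall at the one- to two-leaf stage. Evaluation after about 10 d compared treated with untreated controls, using a scale from 0 (no effect) to 100 (complete control).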

[2] = tested on: Galium (catchweed bedstraw, Galium aparine); test: Test A postemergence; settings: Galium, post-emergence, 240 h, postemergence; for pest or weed control at 125 g/ha: 125 g ai/ha
How it was run: as §1

Kochia (Kochia scoparia) = test: Test A postemergence; settings: Bassia scoparia, post-emergence, 240 h, postemergence; for pest or weed control at 125 g/ha: 125 g ai/ha
How it was run: as §1

[3] = tested on: barnyardgrass (Echinochloa crus-galli); test: Test A postemergence; settings: Echinochloa crus-galli, post-emergence, 240 h, postemergence; for pest or weed control at 125 g/ha: 125 g ai/ha
How it was run: as §1

[4] = tested on: blackgrass (Alopecurus myosuroides); test: Test A postemergence; settings: Alopecurus myosuroides, post-emergence, 240 h, postemergence; for pest or weed control at 125 g/ha: 125 g ai/ha
How it was run: as §1

corn (Zea mays) = test: Test A postemergence; settings: Zea mays, post-emergence, 240 h, postemergence; for plant injury at 125 g/ha: 125 g ai/ha
How it was run: as §1

[5] = tested on: giant foxtail (Setaria faberii); test: Test A postemergence; settings: Setaria faberi, post-emergence, 240 h, postemergence; for pest or weed control at 125 g/ha: 125 g ai/ha
How it was run: as §1

[6] = tested on: pigweed (Amaranthus retroflexus); test: Test A postemergence; settings: Amaranthus retroflexus, post-emergence, 240 h, postemergence; for pest or weed control at 125 g/ha: 125 g ai/ha
How it was run: as §1

[7] = tested on: ragweed (common ragweed, Ambrosia elatior); test: Test A postemergence; settings: Ambrosia artemisiifolia, post-emergence, 240 h, postemergence; for pest or weed control at 125 g/ha: 125 g ai/ha
How it was run: as §1

[8] = tested on: ryegrass, Italian (Italian ryegrass, Lolium multiflorum); test: Test A postemergence; settings: Lolium multiflorum, post-emergence, 240 h, postemergence; for pest or weed control at 125 g/ha: 125 g ai/ha
How it was run: as §1

[9] = tested on: wheat (Triticum aestivum); test: Test A postemergence; settings: Triticum aestivum, post-emergence, 240 h, postemergence; for plant injury at 125 g/ha: 125 g ai/ha
How it was run: as §1

[10] = tested on: barnyardgrass (Echinochloa crus-galli); test: Test B flooded paddy test; settings: Echinochloa crus-galli, Flood, 250 g ai/ha, read-out: Barnyardgrass plant response rating
How it was run: (§2)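 2-leaf plants; pots flooded 3 cm over soil; cpd added to paddy water; depth held; greenhouse 13–15 d; visual rating vs controls, 0 = no effect, 100 = complete control.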

[11] = tested on: ducksalad (Heteranthera limosa); test: Test B flooded paddy test; settings: Heteranthera limosa, Flood, 250 g ai/ha, read-out: Ducksalad plant response rating
How it was run: as §2

rice (Oryra sativa) = test: Test B flooded paddy test; settings: Oryza sativa, Flood, 250 g ai/ha, read-out: Rice plant response rating
How it was run: as §2

[12] = tested on: sedge, umbrella (small-flower umbrella sedge, Cyperus difformis); test: Test B flooded paddy test; settings: Cyperus difformis, Flood, 250 g ai/ha, read-out: Sedge, Umbrella plant response rating
How it was run: as §2

[13] = preemergence, read-out: Barnyardgrass plant response rating
[14] = Preemergence, visual injury vs untreated controls after approximately 10 d, read-out: Barnyardgrass plant response rating (0 to 100 scale where 0 is no effect and 100 is complete control)
[15] = visual injury rating after approximately 10 d, read-out: Galium plant response rating (0 to 100 scale, 0 no effect, 100 complete control)
[16] = visual injury rating after approximately 10 d, read-out: Kochia plant response rating (0 to 100 scale, 0 no effect, 100 complete control)
[17] = visual injury rating after approximately 10 d, read-out: Barnyardgrass plant response rating (0 to 100 scale, 0 no effect, 100 complete control)
[18] = visual injury rating after approximately 10 d, read-out: Blackgrass plant response rating (0 to 100 scale, 0 no effect, 100 complete control)
[19] = visual injury rating after approximately 10 d, read-out: Corn plant response rating (0 to 100 scale, 0 no effect, 100 complete control)
[20] = visual injury rating after approximately 10 d, read-out: Foxtail, Giant plant response rating (0 to 100 scale, 0 no effect, 100 complete control)
[21] = visual injury rating after approximately 10 d, read-out: Pigweed plant response rating (0 to 100 scale, 0 no effect, 100 complete control)
[22] = visual injury rating after approximately 10 d, read-out: Ragweed plant response rating (0 to 100 scale, 0 no effect, 100 complete control)
[23] = visual injury rating after approximately 10 d, read-out: Ryegrass, Italian plant response rating (0 to 100 scale, 0 no effect, 100 complete control)
[24] = visual injury rating after approximately 10 d, read-out: Wheat plant response rating (0 to 100 scale, 0 no effect, 100 complete control)
[25] = scale of 0 to 100 where 0 is no effect and 100 is complete control
[26] = 0 to 100 scale where 0 is no effect and 100 is complete control

CC(C)c1cccc([C@H]2CN(C)C(=O)[C@@H]2C(=O)Nc2ccccc2F)c1 [Compound 819] showed a pest or weed control at 125 g/ha [1, 13] of 90%, a pest or weed control at 500 g/ha [1, 14] of 100% and a pest or weed control at 125 g/ha [2, 15] of 50%. It also gave a pest or weed control at 125 g/ha (Kochia (Kochia scoparia); [16]) of 30%, a pest or weed control at 125 g/ha [3, 17] of 100% and a pest or weed control at 125 g/ha [4, 18] of 60%. It also gave a plant injury at 125 g/ha (corn (Zea mays); [19]) of 40%, a pest or weed control at 125 g/ha [5, 20] of 90% and a pest or weed control at 125 g/ha [6, 21] of 30%. For the same compound, the pest or weed control at 125 g/ha [7, 22] was 0%, the pest or weed control at 125 g/ha [8, 23] was 70% and the plant injury at 125 g/ha [9, 24] was 30%. It also gave a pest or weed control at 250 g/ha [10, 25] of 65%, a pest or weed control at 250 g/ha [11, 25] of 100% and a pest or weed control at 250 g/ha (rice (Oryra sativa); [25]) of 0%. The pest or weed control at 250 g/ha [12, 25] was 0%.
Cc1cc(F)cc([C@H]2CNC(=O)[C@@H]2C(=O)Nc2ccc(F)c(F)c2F)c1 [Compound 848] gave a pest or weed control at 125 g/ha [1, 13] of 90%, a pest or weed control at 500 g/ha [1, 14] of 90% and a pest or weed control at 125 g/ha [2, 15] of 30%. It also gave a pest or weed control at 125 g/ha (Kochia (Kochia scoparia); [16]) of 0%, a pest or weed control at 125 g/ha [3, 17] of 90% and a pest or weed control at 125 g/ha [4, 18] of 0%. The plant injury at 125 g/ha (corn (Zea mays); [19]) was 0%, the pest or weed control at 125 g/ha [5, 20] was 70% and the pest or weed control at 125 g/ha [6, 21] was 0%. The pest or weed control at 125 g/ha [7, 22] was 0%, the pest or weed control at 125 g/ha [8, 23] was 0% and the plant injury at 125 g/ha [9, 24] was 0%. For the same compound, the pest or weed control at 250 g/ha [10, 25] was 60%, the pest or weed control at 250 g/ha [11, 25] was 100% and the pest or weed control at 250 g/ha (rice (Oryra sativa); [25]) was 0%. The pest or weed control at 250 g/ha [12, 25] was 0%.
O=C1NC[C@H](c2cc(C(F)F)cs2)[C@H]1C(=O)Nc1cccc(F)c1F [Compound 1117] showed a pest or weed control at 125 g/ha ([1]; preemergence, approx. 10 d, read-out: Barnyardgrass plant response rating) of 90%, a pest or weed control at 500 g/ha ([1]; preemergence, visual injury rating about 10 d after treatment, 0 to 100 scale (0 no effect, 100 complete control), read-out: Barnyardgrass plant response rating) of 90% and a pest or weed control at 125 g/ha ([2]; visual injury on 0 to 100 scale (0 no effect, 100 complete control), approx. 10 d, read-out: Galium plant response rating) of 40%. The pest or weed control at 500 g/ha ([2]; 500 g ai/ha, 0 to 100 scale, 0 is no effect, 100 is complete control, read-out: Galium plant response rating) was 40%, the pest or weed control at 125 g/ha (Kochia (Kochia scoparia); visual injury on 0 to 100 scale (0 no effect, 100 complete control), approx. 10 d, read-out: Kochia plant response rating) was 20% and the pest or weed control at 500 g/ha (Kochia (Kochia scoparia); 500 g ai/ha, 0 to 100 scale, 0 is no effect, 100 is complete control, read-out: Kochia plant response rating) was 40%. It also gave a pest or weed control at 125 g/ha ([3]; visual injury on 0 to 100 scale (0 no effect, 100 complete control), approx. 10 d, read-out: Barnyardgrass plant response rating) of 80%, a pest or weed control at 500 g/ha ([3]; 500 g ai/ha, 0 to 100 scale, 0 is no effect, 100 is complete control, read-out: Barnyardgrass plant response rating) of 90% and a pest or weed control at 125 g/ha ([4]; visual injury on 0 to 100 scale (0 no effect, 100 complete control), approx. 10 d, read-out: Blackgrass plant response rating) of 0%. The pest or weed control at 500 g/ha ([4]; 500 g ai/ha, 0 to 100 scale, 0 is no effect, 100 is complete control, read-out: Blackgrass plant response rating) was 40%, the plant injury at 125 g/ha (corn (Zea mays); visual injury on 0 to 100 scale (0 no effect, 100 complete control), approx. 10 d, read-out: Corn plant response rating) was 20% and the plant injury at 500 g/ha (corn (Zea mays); 500 g ai/ha, 0 to 100 scale, 0 is no effect, 100 is complete control, read-out: Corn plant response rating) was 40%. The pest or weed control at 125 g/ha ([5]; visual injury on 0 to 100 scale (0 no effect, 100 complete control), approx. 10 d, read-out: Foxtail, Giant plant response rating) was 20%, the pest or weed control at 500 g/ha ([5]; 500 g ai/ha, 0 to 100 scale, 0 is no effect, 100 is complete control, read-out: Foxtail, Giant plant response rating) was 70% and the pest or weed control at 125 g/ha ([6]; visual injury on 0 to 100 scale (0 no effect, 100 complete control), approx. 10 d, read-out: Pigweed plant response rating) was 0%. It also gave a pest or weed control at 500 g/ha ([6]; 500 g ai/ha, 0 to 100 scale, 0 is no effect, 100 is complete control, read-out: Pigweed plant response rating) of 0%, a pest or weed control at 125 g/ha ([7]; visual injury on 0 to 100 scale (0 no effect, 100 complete control), approx. 10 d, read-out: Ragweed plant response rating) of 0% and a pest or weed control at 500 g/ha ([7]; 500 g ai/ha, 0 to 100 scale, 0 is no effect, 100 is complete control, read-out: Ragweed plant response rating) of 30%. The pest or weed control at 125 g/ha ([8]; visual injury on 0 to 100 scale (0 no effect, 100 complete control), approx. 10 d, read-out: Ryegrass, Italian plant response rating) was 0%, the pest or weed control at 500 g/ha ([8]; 500 g ai/ha, 0 to 100 scale, 0 is no effect, 100 is complete control, read-out: Ryegrass, Italian plant response rating) was 40% and the plant injury at 125 g/ha ([9]; visual injury on 0 to 100 scale (0 no effect, 100 complete control), approx. 10 d, read-out: Wheat plant response rating) was 0%. It also gave a plant injury at 500 g/ha ([9]; 500 g ai/ha, 0 to 100 scale, 0 is no effect, 100 is complete control, read-out: Wheat plant response rating) of 70%, a pest or weed control at 250 g/ha [10, 26] of 60% and a pest or weed control at 250 g/ha [11, 26] of 100%. For the same compound, the pest or weed control at 250 g/ha (rice (Oryra sativa); [26]) was 20% and the pest or weed control at 250 g/ha [12, 26] was 0%.
